{"source": "patent US20170189416A1", "about": "“PHARMACEUTICAL COMPOSITION FOR TREATING BREAST CANCER” (MA SHEN KAI RUEi CO., LTD., priority 2015, published 2017)", "key": {"MCF-7": {"tested_on": "MCF-7", "experiment": "MTT survival assay on human breast-cancer cells MCF-7", "assay_type": "cell-based", "conditions": "MCF-7, MTT assay, isolated compound", "source_text": "(§1) According to the present invention, the effects such as treating breast cancer, inhibiting the growth of breast cancer cell and others, of Antroquinonol B (AnQB) and/or dehydroeburicoic acid (DeHBA) may be tested by using any of the test methods used in the prior arts, for example, MTT assay of using 3-(4,5-dimethylthiazol-2-yl)-2, S-diphenyl tetrazolium bromide (MTT) to determine cell survival rates of breast cancer cell lines.\n(§2) The Antroquinonol B (AnQB) and dehydroeburicoic acid (DeHBA) separately isolated from the Extraction A of Example 1 were added into the culture media of human breast-cancer cells, MCF-7 or MDA-MB-231, to test for tumor cell survival by using anti-cancer drug screen model. This survival assay was carried out with the widely known MTT (3-[4,5-dimethylthiazol-2-yl]2,5-diphenyltetrazolium bromide) assay.\n(§3) MCF-7 cell line (purchased from B CRC) is originated from primary breast cancer cells (early stage), sensitive to estrogen and therefore is estrogen-dependent, while MDA-MB-231 is insensitive to estrogen and therefore is estrogen-independent, which is a difficult tumor with a low survival rate.\n(§4) The human breast-cancer cells, MCF-7 and MDA-MB-231 were cultivated in media containing fetal calf serum for 36 hours. The proliferated cells were washed once with PBS, then treated with 1× trypsin-EDTA and centrifuged at 2000 rpm for 25 minutes. The supernatant was discarded and the cell pellet was re-suspended in 30 ml of fresh culture medium by gently shaking. The cells were placed in a 96-well plate.\n(§5) Subsequently, the plates were read on an ELISA reader to determine the survival rates. The half maximal inhibitory concentration (IC50) values were calculated and results of ex vivo survival assay were thus obtained.\n(§6) By using the same manner as the method described above, respectively human breast cancer cell line MCF-7 and MDA-MB-231 was cultured. After then, the pharmaceutical compositions A˜F of the present invention was applied separately, and then MTT assay for each sample was measured to assess the inhibition effectiveness of various cancer cell activity while using pharmaceutical compositions A˜F of the present invention."}, "MDA-MB-231": {"tested_on": "MDA-MB-231", "experiment": "MTT survival assay on human breast-cancer cells MDA-MB-231", "assay_type": "cell-based", "conditions": "MDA-MB-231, MTT assay, isolated compound", "source_text": "as §1, §2, §3, §4, §5, §6"}}, "note": "“Also recorded” adds a separate entry of the source."}
{"smiles": "C=C(CC[C@@H](C(=O)O)[C@H]1CC[C@@]2(C)C3=CC[C@H]4C(C)(C)[C@@H](O)CC[C@]4(C)C3=CC[C@]12C)C(C)C", "note": "[dehydroeburicoic acid]", "values": [{"measurement": "half-maximal inhibitory concentration (IC50)", "setting": "MCF-7", "result": "relatively low"}, {"measurement": "survival rate of breast cancer cell line", "setting": "MCF-7", "result": "can inhibit the growth of breast cancer cell; also recorded: can decrease the survival rates"}, {"measurement": "half-maximal inhibitory concentration (IC50)", "setting": "MDA-MB-231", "result": "relatively low"}, {"measurement": "survival rate of breast cancer cell line", "setting": "MDA-MB-231", "result": "can inhibit the growth of breast cancer cell; also recorded: can decrease the survival rates"}]}
{"smiles": "COC1=C(OC)[C@H](O)[C@H](C/C=C(\\C)CC/C=C(/C)C/C=C/C(C)(C)O)[C@@H](C)C1=O", "note": "[Antroquinonol B]", "values": [{"measurement": "half-maximal inhibitory concentration (IC50)", "setting": "MCF-7", "result": "relatively low"}, {"measurement": "survival rate of breast cancer cell line", "setting": "MCF-7", "result": "can inhibit the growth of breast cancer cell; also recorded: can decrease the survival rates"}, {"measurement": "half-maximal inhibitory concentration (IC50)", "setting": "MDA-MB-231", "result": "relatively low"}, {"measurement": "survival rate of breast cancer cell line", "setting": "MDA-MB-231", "result": "can inhibit the growth of breast cancer cell; also recorded: can decrease the survival rates"}]}
